From patent US6783756B2, “Methods for regulating gene expression” (Abbott GmbH & Co., KG, priority 1993, dated 2004)

Experiments:
lacR = lacR (Escherichia coli, UniProt P03023); details: cited from earlier work
lacR/O = details: eucaryotic cells; cited from earlier work
[1] = compared to Tc; cited from earlier work
HeLa cells = test: Growth behavior and morphology of HeLa cells in tetracycline-containing medium; assay type: cell-based, human
Method: The tTA inactivation studies were carried out with 1 μg of tetracycline per ml in the culture medium. […] Only at tetracycline concentrations well above 10 μg/ml were such changes observed upon prolonged incubation.

tTA = biological target: T1, tTA (Escherichia coli, UniProt P04483); test: Kinetics of tetracycline action on luciferase activity in X1 cells; assay type: cell-based, human; details: for Luciferase activity after addition of tetracycline, share of original value: tetracycline 1 μg/ml
T1 construct: LOCATION: 1..207; expressed in transfected cells
T1 sequence (P04483 whole entry, added parts left off): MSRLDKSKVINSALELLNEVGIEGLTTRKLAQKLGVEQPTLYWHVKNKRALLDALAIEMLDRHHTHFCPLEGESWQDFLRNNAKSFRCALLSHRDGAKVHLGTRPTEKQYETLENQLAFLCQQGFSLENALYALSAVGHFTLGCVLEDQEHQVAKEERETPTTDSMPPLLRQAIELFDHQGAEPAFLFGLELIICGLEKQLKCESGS
Method: FIG. 3B: Kinetics of tetracycline action. X1 cells were grown in 100 mm dishes to 80% confluency in the absence or presence (0.1 μg/ml) of tetracycline. At time 0, cells were washed with phosphate-buffered saline and split into smaller culture dishes ( 1/20th of the initial cultures per 35 mm dish). Half of the cultures remained in tetracycline-free medium (▪) and the other half were incubated in the presence of tetracycline (1 μg/ml; □). The X1 culture grown in tetracycline-containing medium was split in the same manner; one half was further incubated in the presence of tetracycline (●), whereas the other half was transferred to tetracycline-free medium (∘). At the times indicated, aliquots were harvested and examined for luciferase activity. The slight increase in luciferase activity monitored at 4 hr in the culture containing tetracycline (●) is reproducible and reflects luciferase induction during the washing step.
The time course of tetracycline action was analyzed in cultures grown in the absence or presence of tetracycline. At time 0, the antibiotic was added to the tetracycline-free cultures (final concentration, 1 μg/ml), whereas the tetracycline-containing cultures were rinsed and incubated in fresh antibiotic-free medium (FIG. 3 panel b). At various times, cells were harvested and analyzed for luciferase activity. […] A similarly rapid reduction of luciferase activity was observed when tetracycline was added to the fully active tetracycline-free system: within 8 hr activity dropped to about 10% and reached <2% of its original value after 12 hr.

Chain of lacR (P03023 whole entry): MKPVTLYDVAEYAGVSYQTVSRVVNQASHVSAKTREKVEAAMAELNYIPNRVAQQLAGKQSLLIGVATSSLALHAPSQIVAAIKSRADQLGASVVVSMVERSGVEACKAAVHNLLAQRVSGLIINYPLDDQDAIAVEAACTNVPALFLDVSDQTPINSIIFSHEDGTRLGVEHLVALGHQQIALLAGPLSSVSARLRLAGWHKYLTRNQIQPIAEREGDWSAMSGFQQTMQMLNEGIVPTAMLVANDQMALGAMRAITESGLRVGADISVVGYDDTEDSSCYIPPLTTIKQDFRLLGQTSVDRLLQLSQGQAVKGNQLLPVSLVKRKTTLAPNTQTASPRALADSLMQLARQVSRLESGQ

Q: Which results are given for `CC(C)S[C@@H]1O[C@H](CO)[C@H](O)[C@H](O)[C@H]1O` [IPTG, isopropyl.β-D-thiogalactopyranoside]?
A: ka of lacR for IPTG (lacR): 10^6 M^−1; Reduction of binding constant kRo by the inducer (lacR; lacR/O system): 1000 fold; Induction by IPTG (lacR/O): only moderate induction

Q: Which Antibiotic activity [1] does the source give for `Cc1c2c(c(O)c3c(O)cccc13)C(=O)[C@]1(O)C(=O)C(C(N)=O)=C(O)[C@@H](N(C)C)[C@@H]1C2` [anhydrotetracycline] here?
A: reduced antibiotic activity compared to Tc

Q: Which Antibiotic activity [1] does the source give for `CN(C)[C@H]1C(O)=C(C(N)=O)C(=O)[C@@]2(O)C(O)=C3C(=O)c4c(O)cccc4[C@@](C)(O)[C@H]3[C@H](O)[C@@H]12` [epioxytetracycline] here?
A: reduced antibiotic activity compared to Tc

Q: With `CN(C)[C@@H]1C(O)=C(C(N)=O)C(=O)[C@@]2(O)C(O)=C3C(=O)c4c(O)cccc4[C@@](C)(O)[C@H]3C[C@@H]12` [tetracycline] as the compound, how does the “Tetracycline concentration at which changes in growth behavior or morphology were observed” value (HeLa cells; prolonged incubation) read?
A: above 10 μg/ml

Q: What about the “Change in growth behavior or morphology of HeLa cells” value (HeLa cells; tetracycline 0.1 μg/ml) of the same compound?
A: no change in growth behavior or morphology

Q: What about the “Luciferase activity after addition of tetracycline, share of original value” (tTA; after 12 hr) of the same compound?
A: < 2%

Q: And the “Luciferase activity after addition of tetracycline, share of original value” (tTA; within 8 hr)?
A: about 10%

Q: And the “Luciferase activity after depletion of tetracycline, share of fully induced (steady-state) level” value (tTA; within 12 hr after shift to tetracycline-free medium)?
A: > 20%
